Results taken from PubChem BioAssay (NCI).
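Interpolation was linear, between the two tested concentrations surrounding the appropriate level; five concentrations were tested over 48 hours in 96-well plates. TGI: concentration producing complete growth inhibition.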

Tests used:
Experiment in all cases: growth of human tumour cells (NCI), 48 h
[1] = test system: HCC-2998 colon
[2] = test system: CAKI-1 renal
[3] = test system: A498 renal
[4] = test system: UACC-257 melanoma
[5] = test system: ACHN renal
[6] = test system: SN12C renal
[7] = test system: HCT-15 colon
[8] = test system: 786-0 renal
[9] = test system: NCI-H23 lung
[10] = test system: K-562 leukemia

| SMILES | TGI [1] [µM] | TGI [2] [µM] | TGI [3] [µM] | TGI [4] [µM] | TGI [5] [µM] | TGI [6] [µM] | TGI [7] [µM] | TGI [8] [µM] | TGI [9] [µM] | TGI [10] [µM] |
| --- | --- | --- | --- | --- | --- | --- | --- | --- | --- | --- |
| CC1=NN(c2cc(Cl)c(S(=O)(=O)O)cc2Cl)C2(C1)C(Cl)C(=O)N2c1nc2ccccc2s1 (stereo not given) | > 100 | > 100 | > 100 | > 100 | > 100 | > 100 | > 100 | > 100 | > 100 | > 100 |
| O=C(c1ccccc1)C1C(c2ccccc2[N+](=O)[O-])N1C1CCCCC1 (stereo not given) | 18 | 9.5 | 30.5 | 8.88 | 3.74 | 15.6 | 23 | 5.05 | 37.4 | 8.06 |
| CCOC(=O)c1c(-c2ccc(Cl)cc2)c(C#N)c(=S)n(C2OC(COC(C)=O)C(OC(C)=O)C(OC(C)=O)C2OC(C)=O)c1C (stereo not given) | > 100 | > 100 | > 100 | > 100 | > 100 | > 100 | > 100 | > 100 | > 100 | > 100 |
| O=c1ccc(=O)c2c1c1[nH]c3ccccc3c1c1c(=O)c3ccccc3c(=O)c21 | > 10 | > 10 | > 10 | > 10 | > 10 | > 10 | > 10 | > 10 | > 10 | > 10 |
| N#Cc1cc2c(n(C3OC(CO)C(O)C(O)C3O)c1=S)CCC2 (stereo not given) | > 100 | > 100 | > 100 | > 100 | > 100 | > 100 | > 100 | > 100 | > 100 | > 100 |
| Cc1cc(Br)c(O)c(-c2cscn2)c1 | 36.2 | 62.6 | 76.8 | – | 36.6 | 23.6 | 18.4 | 8.39 | 35.6 | 25.2 |
| O=C(CCCCCCCCC(=O)N1C(=O)CC(=O)N(c2ccc(Cl)cc2)C1=S)N1C(=O)CC(=O)N(c2ccc(Cl)cc2)C1=S | > 100 | > 100 | > 100 | > 100 | > 100 | > 100 | > 100 | > 100 | > 100 | > 100 |
| FC(F)(Sc1ncccn1)c1nc2ccccc2o1 | > 100 | > 100 | > 100 | > 100 | > 100 | > 100 | > 100 | > 100 | > 100 | > 100 |
| CN=C1C=C(/N=C2/C=C(N/C(=C\C#N)C(C)(C)O)OC2(C)C)OC1(C)C | > 100 | > 67.1 | 88.9 | > 100 | > 100 | > 100 | > 100 | > 100 | > 100 | 80.4 |
| C/C(=C\C(=O)O)C(=O)N(C)c1ccccc1I | > 100 | > 100 | > 100 | > 100 | > 100 | > 100 | > 100 | > 100 | > 100 | > 100 |
| CCn1c(-c2cc3ccccc3cc2OC(C)=O)n[nH]c1=S | 38.5 | > 100 | 84.8 | 62.6 | > 100 | – | 87.1 | > 100 | 87.9 | 33.1 |
| CCOC(=O)NC(Nc1ccc(C(=O)O)cc1)(C(F)(F)F)C(F)(F)F | > 100 | > 100 | > 100 | > 100 | > 100 | > 100 | > 100 | > 100 | > 100 | > 100 |
| CCOC(=O)CCC(NC(=O)c1ccc(NCc2ccc3nc(OC)c(OC)nc3c2)c2ccccc12)C(=O)OCC (stereo not given) | > 100 | > 100 | > 100 | > 100 | > 100 | > 100 | > 100 | > 100 | > 100 | > 100 |
| COC(=O)c1c2c(cc3c1CC1(Cc4cc5c(cc4C1)CCCC5)C3)CCCC2 | > 100 | – | > 100 | > 100 | > 100 | > 100 | > 100 | > 100 | > 100 | > 100 |
| CC[P+](c1ccccc1)(N(C)C)N(C)C | > 100 | > 100 | > 100 | > 100 | > 100 | > 100 | > 100 | > 100 | > 100 | > 100 |
| CN1CCN(Cc2ccc(C(=S)Nc3ccccc3)s2)CC1 | > 100 | > 100 | > 100 | > 100 | > 100 | – | 55.4 | > 100 | 61.8 | 95.9 |
| NCC1OC(OC2C(N)CC(N)C(O)C2OC2OC(CO)C(O)C2O)C(N)C(O)C1O (stereo not given) | > 100 | > 100 | > 100 | > 100 | > 100 | > 100 | > 100 | > 100 | > 100 | > 100 |
| Nc1c(-c2ccccc2)c2ccc([N+](=O)[O-])cc2c(=O)n1-c1cccc(C(=O)O)c1 | > 100 | > 100 | > 100 | > 100 | > 100 | – | > 100 | – | > 100 | > 100 |
| Cc1c(C)c2c(c(N)c1C#N)C(=O)N(NC(=S)Nc1ccccc1)C2=O | > 100 | 88.1 | – | > 100 | > 100 | > 100 | > 100 | > 100 | > 100 | > 100 |
| CCCCCCCCCCCCCCCC[N+](C)(C)CCl | 3.18 | 8.74 | 32.2 | 21.1 | 8.36 | 12.8 | 20.9 | 3.31 | 27.8 | – |
| Cc1cc(C)nc(NS(=O)(=O)c2ccc(NC(=O)c3ccc4nc5ccccc5c(Nc5ccc(S(=O)(=O)N=C(N)N)cc5)c4c3)cc2)n1 | > 100 | > 100 | – | > 100 | > 100 | > 100 | > 100 | > 100 | > 100 | > 100 |
| COc1cc2ccc(C(C)NCC#N)cc2cc1OC (stereo not given) | > 100 | > 100 | > 100 | > 100 | > 100 | > 100 | > 100 | > 100 | – | > 100 |
